Results: patent publication US12371428B2 (Exelixis, Inc., priority 2019, dated 2025)

Legend:
Assay type in all cases: cell-based
[1] = biological target: AXL (phospho-AXL, Gas6-stimulated A-172 glioblastoma cells) (Homo sapiens (Human), UniProt P30530); experiment: AXL autophosphorylation ELISA in A-172 cells (Example E); conditions: cellular activity; AXL autophosphorylation ELISA in A-172 cells; read-out: Axl IC50
Experimental: A-172 cells were incubated at 37° C., 5% CO2 for 24 h and then starved for 24 h in serum-free medium. Test compounds were serially diluted to produce an 8-point dose curve in fresh serum-free medium to a final concentration of 0.3% DMSO (vehicle) and added to the cells and incubated for 1 h. […] Lysates were collected and 100 μL/well added into the human phospho-AXL DuoSet IC ELISA (R&D Systems #DYC2228-2). […] Positive control wells (100% activity) contained Gas6-stimulated, DMSO-treated cell lysates. Negative control wells (0% activity) contained Gas6-stimulated, reference inhibitor-treated cell lysates. IC50 values were calculated by nonlinear regression analysis using a 4-parameter logistic curve fit in ActivityBase XE (IDBS).

[2] = biological target: Met (phospho-Met, HGF-stimulated PC-3 prostate cancer cells) (Homo sapiens (Human), UniProt P08581); experiment: Met autophosphorylation ELISA in PC-3 cells (Example F); conditions: cellular activity; Met autophosphorylation ELISA in PC-3 cells; read-out: c-Met IC50
Sequence of Met (phospho-Met, HGF-stimulated PC-3 prostate cancer cells) (P08581 25-1390): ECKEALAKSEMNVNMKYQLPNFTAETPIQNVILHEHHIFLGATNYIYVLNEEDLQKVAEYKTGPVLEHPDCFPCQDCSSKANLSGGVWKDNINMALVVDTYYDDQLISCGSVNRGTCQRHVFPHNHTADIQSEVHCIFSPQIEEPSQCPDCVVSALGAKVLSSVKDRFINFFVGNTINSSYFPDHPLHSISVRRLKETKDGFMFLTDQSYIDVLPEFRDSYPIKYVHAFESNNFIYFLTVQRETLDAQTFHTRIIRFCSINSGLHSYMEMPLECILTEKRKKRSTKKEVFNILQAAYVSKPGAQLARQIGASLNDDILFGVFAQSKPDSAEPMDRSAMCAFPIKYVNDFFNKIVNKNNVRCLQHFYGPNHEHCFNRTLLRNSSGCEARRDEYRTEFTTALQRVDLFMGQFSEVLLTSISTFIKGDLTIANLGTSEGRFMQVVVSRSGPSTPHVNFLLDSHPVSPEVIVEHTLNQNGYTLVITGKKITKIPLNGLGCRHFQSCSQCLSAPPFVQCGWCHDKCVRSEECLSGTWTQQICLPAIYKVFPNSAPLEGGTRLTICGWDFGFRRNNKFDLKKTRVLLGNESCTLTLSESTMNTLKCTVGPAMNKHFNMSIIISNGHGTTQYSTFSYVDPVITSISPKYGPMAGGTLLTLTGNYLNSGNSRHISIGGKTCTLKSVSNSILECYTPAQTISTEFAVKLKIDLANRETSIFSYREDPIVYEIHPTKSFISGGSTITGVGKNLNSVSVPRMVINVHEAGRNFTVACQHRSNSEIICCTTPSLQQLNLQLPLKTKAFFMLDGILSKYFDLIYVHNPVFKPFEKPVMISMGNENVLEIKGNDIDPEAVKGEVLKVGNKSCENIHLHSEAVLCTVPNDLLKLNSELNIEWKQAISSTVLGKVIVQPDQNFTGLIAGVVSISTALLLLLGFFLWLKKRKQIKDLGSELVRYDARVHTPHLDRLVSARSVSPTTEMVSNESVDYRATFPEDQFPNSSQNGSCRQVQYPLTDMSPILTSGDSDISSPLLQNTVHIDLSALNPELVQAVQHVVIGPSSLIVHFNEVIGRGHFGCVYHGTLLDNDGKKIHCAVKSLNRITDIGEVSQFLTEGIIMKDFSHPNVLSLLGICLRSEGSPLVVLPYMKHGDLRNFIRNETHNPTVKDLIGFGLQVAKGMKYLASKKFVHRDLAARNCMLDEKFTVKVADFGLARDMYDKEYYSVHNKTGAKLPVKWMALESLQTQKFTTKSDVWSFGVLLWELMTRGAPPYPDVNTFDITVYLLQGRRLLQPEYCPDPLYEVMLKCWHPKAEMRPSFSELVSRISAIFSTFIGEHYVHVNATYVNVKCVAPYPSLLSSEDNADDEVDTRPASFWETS
Summary of the method: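 PC-3 cells, serum-starved 3 h, were treated with compounds (8-point dose curve, 0.3% DMSO final) for 1 h, then stimulated with 100 ng/mL recombinant human HGF for 10 min. Lysate phospho-Met (panTyr) was quantified by sandwich ELISA; IC50 from 4-parameter logistic fit.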

[3] = biological target: Mer (phospho-Mer, MERTK-transfected 293A cells) (Homo sapiens (Human), UniProt Q12866); experiment: Mer autophosphorylation ELISA in transient transfected 293A cells (Example H); conditions: cellular activity; Mer autophosphorylation ELISA in transient transfected 293A cells
Sequence of Mer (phospho-Mer, MERTK-transfected 293A cells) (Q12866 21-999): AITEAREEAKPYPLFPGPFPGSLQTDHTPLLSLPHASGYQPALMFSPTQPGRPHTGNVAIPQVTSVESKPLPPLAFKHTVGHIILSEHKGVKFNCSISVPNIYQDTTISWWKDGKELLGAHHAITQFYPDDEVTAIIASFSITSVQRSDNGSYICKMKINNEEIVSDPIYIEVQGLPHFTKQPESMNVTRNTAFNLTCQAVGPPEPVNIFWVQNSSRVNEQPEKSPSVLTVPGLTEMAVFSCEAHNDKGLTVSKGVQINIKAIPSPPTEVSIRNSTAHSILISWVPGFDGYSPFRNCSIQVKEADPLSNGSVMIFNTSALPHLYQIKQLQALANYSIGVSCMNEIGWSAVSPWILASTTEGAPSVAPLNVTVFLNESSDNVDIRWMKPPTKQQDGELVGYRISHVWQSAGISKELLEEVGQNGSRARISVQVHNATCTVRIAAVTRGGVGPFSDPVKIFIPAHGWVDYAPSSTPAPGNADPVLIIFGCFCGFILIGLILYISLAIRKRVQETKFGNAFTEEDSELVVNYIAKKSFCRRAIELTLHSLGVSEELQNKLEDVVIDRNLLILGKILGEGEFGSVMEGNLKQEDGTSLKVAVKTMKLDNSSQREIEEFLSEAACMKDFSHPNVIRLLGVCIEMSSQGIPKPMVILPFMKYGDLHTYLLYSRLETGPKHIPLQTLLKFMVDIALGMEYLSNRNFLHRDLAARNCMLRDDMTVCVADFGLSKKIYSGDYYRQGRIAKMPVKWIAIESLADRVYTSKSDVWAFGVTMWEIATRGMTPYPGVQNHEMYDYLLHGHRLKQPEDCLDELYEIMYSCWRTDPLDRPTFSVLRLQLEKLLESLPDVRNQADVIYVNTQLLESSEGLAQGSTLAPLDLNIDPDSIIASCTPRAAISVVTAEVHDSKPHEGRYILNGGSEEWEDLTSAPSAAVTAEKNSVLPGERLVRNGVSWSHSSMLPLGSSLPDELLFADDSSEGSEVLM
Summary of the method: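 IC50 from phospho-Mer ELISA of MERTK-transfected 293A cell lysates after 1 h treatment with serially diluted compound in serum-free medium.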

Sequence of AXL (phospho-AXL, Gas6-stimulated A-172 glioblastoma cells) (P30530 26-894): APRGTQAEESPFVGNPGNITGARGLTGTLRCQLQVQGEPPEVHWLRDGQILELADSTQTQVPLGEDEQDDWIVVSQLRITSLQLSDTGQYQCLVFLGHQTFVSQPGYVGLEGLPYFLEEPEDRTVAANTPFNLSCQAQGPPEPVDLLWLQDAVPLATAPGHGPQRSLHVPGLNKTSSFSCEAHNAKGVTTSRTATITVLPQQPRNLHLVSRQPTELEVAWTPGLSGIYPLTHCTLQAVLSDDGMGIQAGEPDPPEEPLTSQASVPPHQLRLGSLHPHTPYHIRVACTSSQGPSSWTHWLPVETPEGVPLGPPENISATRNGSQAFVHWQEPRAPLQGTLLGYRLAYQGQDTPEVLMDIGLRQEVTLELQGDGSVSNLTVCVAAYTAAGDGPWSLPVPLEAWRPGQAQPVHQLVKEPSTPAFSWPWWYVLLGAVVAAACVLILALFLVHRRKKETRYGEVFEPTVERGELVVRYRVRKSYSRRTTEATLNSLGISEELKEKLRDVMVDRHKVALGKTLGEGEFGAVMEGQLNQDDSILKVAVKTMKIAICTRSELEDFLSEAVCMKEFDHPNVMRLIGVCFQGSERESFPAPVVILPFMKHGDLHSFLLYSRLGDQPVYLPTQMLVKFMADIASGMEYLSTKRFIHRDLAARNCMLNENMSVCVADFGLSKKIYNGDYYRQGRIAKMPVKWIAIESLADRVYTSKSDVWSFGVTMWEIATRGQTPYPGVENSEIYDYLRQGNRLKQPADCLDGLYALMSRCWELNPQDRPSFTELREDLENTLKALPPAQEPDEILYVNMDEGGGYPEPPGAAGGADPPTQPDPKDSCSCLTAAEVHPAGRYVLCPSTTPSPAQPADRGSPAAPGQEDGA

| SMILES | IC50 [1] [nM] | IC50 [2] [nM] | IC50 [3] [nM] |
| --- | --- | --- | --- |
| COc1cc2nccc(Oc3ccc(NC(=O)c4c(C)nc(C)c(-c5ccc(F)cc5F)c4O)cc3F)c2nc1OC [Compound 209, 5-(2,4-Difluorophenyl)-N-[4-[(6,7-dimethoxy-1,5-naphthyridin-4-yl)oxy]-3-fluorophenyl]-4-hydroxy-2,6-dimethylpyridine-3-carboxamide] | < 100 | < 100 | < 100 |
| COc1cnc2c(Oc3ccc(NC(=O)c4c(C)nc(C)c(-c5ccc(F)cc5F)c4O)cc3F)ccnc2c1 [Compound 210, 5-(2,4-Difluorophenyl)-N-[3-fluoro-4-[(7-methoxy-1,5-naphthyridin-4-yl)oxy]phenyl]-4-hydroxy-2,6-dimethylpyridine-3-carboxamide] | < 100 | < 100 | < 100 |
| COCc1nc(C)c(-c2ccc(F)cc2F)c(O)c1C(=O)Nc1ccc(Oc2ccnc3cc(OC)cnc23)c(F)c1 [Compound 211, 5-(2,4-Difluorophenyl)-N-[3-fluoro-4-[(7-methoxy-1,5-naphthyridin-4-yl)oxy]phenyl]-4-hydroxy-2-(methoxymethyl)-6-methylpyridine-3-carboxamide] | < 100 | < 100 | < 100 |
| COCc1nc(C)c(-c2ccc(F)cc2F)c(O)c1C(=O)Nc1ccc(Oc2ccnc3cc(OC)c(OC)nc23)c(F)c1 [Compound 212, 5-(2,4-Difluorophenyl)-N-[4-[(6,7-dimethoxy-1,5-naphthyridin-4-yl)oxy]-3-fluorophenyl]-4-hydroxy-2-(methoxymethyl)-6-methylpyridine-3-carboxamide] | < 100 | < 100 | < 100 |
| CCOCc1nc(C)c(-c2ccc(F)cc2)c(O)c1C(=O)Nc1ccc(Oc2ccnc3cc(OC)cnc23)c(F)c1 [Compound 214, 2-(Ethoxymethyl)-N-[3-fluoro-4-[(7-methoxy-1,5-naphthyridin-4-yl)oxy]phenyl]-5-(4-fluorophenyl)-4-hydroxy-6-methylpyridine-3-carboxamide] | < 100 | < 100 | < 100 |
| CNC(=O)c1cc2c(Oc3ccc(NC(=O)c4cnc(C)c(-c5ccc(F)cc5)c4O)cc3)ccnc2cn1 [Compound 398, 4-[4-[[5-(4-fluorophenyl)-4-hydroxy-6-methylpyridine-3-carbonyl]amino]phenoxy]-N-methyl-1,7-naphthyridine-6-carboxamide] | < 100 | < 100 | < 100 |
| COCc1nc(C)cc(O)c1C(=O)Nc1ccc(Oc2ccnc3cc(OC)c(OC)nc23)c(F)c1 [Compound 492, N-[4-[(6,7-dimethoxy-1,5-naphthyridin-4-yl)oxy]-3-fluorophenyl]-4-hydroxy-2-(methoxymethyl)-6-methylpyridine-3-carboxamide] | 100 to 300 | < 100 | < 100 |
| COc1ccc2nccc(Oc3ccc(NC(=O)c4c(C)ncc(-c5ccc(F)cc5C)c4O)cc3)c2n1 [Compound 493, 5-(4-fluoro-2-methylphenyl)-4-hydroxy-N-[4-[(6-methoxy-1,5-naphthyridin-4-yl)oxy]phenyl]-2-methylpyridine-3-carboxamide] | < 100 | < 100 | < 100 |
| Cc1cc(C)n(-c2ccc(F)cc2)c(=O)c1C(=O)Nc1ccc(Oc2ccnc3cc(C(C)CO)cnc23)c(F)c1 (stereo not drawn) [Compound 599, N-[3-Fluoro-4-[[7-(1-hydroxypropan-2-yl)-1,5-naphthyridin-4-yl]oxy]phenyl]-1-(4-fluorophenyl)-4,6-dimethyl-2-oxopyridine-3-carboxamide] | < 100 | < 100 | < 100 |
| COc1cnc2c(Oc3ccc(NC(=O)c4cn(CCF)c(C)c(-c5ccc(F)cc5C)c4=O)cc3)ccnc2c1 [Compound 798, 1-(2-fluoroethyl)-5-(4-fluoro-2-methylphenyl)-N-[4-[(7-methoxy-1,5-naphthyridin-4-yl)oxy]phenyl]-6-methyl-4-oxopyridine-3-carboxamide] | < 100 | < 100 | < 100 |

The next lines start with the values.

| IC50 [1] [nM] | IC50 [2] [nM] | IC50 [3] [nM] | SMILES |
| --- | --- | --- | --- |
| < 100 | < 100 | < 100 | CCOCc1nc(C)c(-c2ccc(F)cc2)c(O)c1C(=O)Nc1ccc(Oc2ccnc3cc(OC)c(OC)nc23)c(F)c1 [Compound 213, N-[4-[(6,7-Dimethoxy-1,5-naphthyridin-4-yl)oxy]-3-fluorophenyl]-2-(ethoxymethyl)-5-(4-fluorophenyl)-4-hydroxy-6-methylpyridine-3-carboxamide] |
| < 100 | < 100 | < 100 | COCc1c(C(=O)Nc2ccc(Oc3ccnc4cc(OC)c(OC)nc34)c(F)c2)c(=O)c(-c2ccc(F)cc2)c(C)n1C [Compound 336, N-[4-[(6,7-dimethoxy-1,5-naphthyridin-4-yl)oxy]-3-fluorophenyl]-5-(4-fluorophenyl)-2-(methoxymethyl)-1,6-dimethyl-4-oxopyridine-3-carboxamide] |
| < 100 | < 100 | < 100 | COc1cc2nccc(Oc3ccc(NC(=O)c4cc(F)c(C)n(-c5ccc(F)cc5)c4=O)cc3F)c2nc1OC [Compound 337, N-[4-[(6,7-dimethoxy-1,5-naphthyridin-4-yl)oxy]-3-fluorophenyl]-5-fluoro-1-(4-fluorophenyl)-6-methyl-2-oxopyridine-3-carboxamide] |
| < 100 | < 100 | < 100 | COc1cc2nccc(Oc3ccc(NC(=O)c4cc(F)c(C)n(-c5ccc(F)cc5)c4=O)cc3)c2nc1OC [Compound 338, N-[4-[(6,7-dimethoxy-1,5-naphthyridin-4-yl)oxy]phenyl]-5-fluoro-1-(4-fluorophenyl)-6-methyl-2-oxopyridine-3-carboxamide] |
| 100 to 300 | 100 to 300 | < 100 | COc1cc2nccc(Oc3ccc(NC(=O)c4nnc(C)c(-c5ccc(F)cc5)c4SC)cc3F)c2nc1OC [Compound 602, N-[4-[(6,7-Dimethoxy-1,5-naphthyridin-4-yl)oxy]-3-fluorophenyl]-5-(4-fluorophenyl)-6-methyl-4-methylsulfanylpyridazine-3-carboxamide] |
| < 100 | < 100 | < 100 | COc1cc2nccc(Oc3ccc(NC(=O)c4cn(CCF)c(C)c(-c5ccc(F)cc5)c4=O)cc3F)c2nc1OC [Compound 622, N-[4-[(6,7-Dimethoxy-1,5-naphthyridin-4-yl)oxy]-3-fluorophenyl]-1-(2-fluoroethyl)-5-(4-fluorophenyl)-6-methyl-4-oxopyridine-3-carboxamide] |
| < 100 | < 100 | < 100 | COc1cc2nccc(Oc3ccc(NC(=O)c4cn(CC(F)F)c(C)c(-c5ccc(F)cc5)c4=O)cc3F)c2nc1OC [Compound 623, 1-(2,2-Difluoroethyl)-N-[4-[(6,7-dimethoxy-1,5-naphthyridin-4-yl)oxy]-3-fluorophenyl]-5-(4-fluorophenyl)-6-methyl-4-oxopyridine-3-carboxamide] |
| < 100 | < 100 | < 100 | COc1cnc2c(Oc3ccc(NC(=O)c4cn(CCF)c(C)c(-c5ccc(F)cc5)c4=O)cc3F)ccnc2c1 [Compound 624, 1-(2-Fluoroethyl)-N-[3-fluoro-4-[(7-methoxy-1,5-naphthyridin-4-yl)oxy]phenyl]-5-(4-fluorophenyl)-6-methyl-4-oxopyridine-3-carboxamide] |
| < 100 | < 100 | < 100 | COc1cnc2c(Oc3ccc(NC(=O)c4cn(CC(F)F)c(C)c(-c5ccc(F)cc5)c4=O)cc3F)ccnc2c1 [Compound 625, 1-(2,2-Difluoroethyl)-N-[3-fluoro-4-[(7-methoxy-1,5-naphthyridin-4-yl)oxy]phenyl]-5-(4-fluorophenyl)-6-methyl-4-oxopyridine-3-carboxamide] |
| < 100 | < 100 | < 100 | COc1cnc2c(Oc3ccc(NC(=O)c4cn(C(F)F)c(C)c(-c5ccc(F)cc5)c4=O)cc3F)ccnc2c1 [Compound 626, 1-(Difluoromethyl)-N-[3-fluoro-4-[(7-methoxy-1,5-naphthyridin-4-yl)oxy]phenyl]-5-(4-fluorophenyl)-6-methyl-4-oxopyridine-3-carboxamide] |
| < 100 | < 100 | < 100 | COc1cnc2c(Oc3ccc(NC(=O)c4cn(CCF)c(C)c(-c5ccc(F)cc5C)c4=O)cc3F)ccnc2c1 [Compound 799, 1-(2-fluoroethyl)-N-[3-fluoro-4-[(7-methoxy-1,5-naphthyridin-4-yl)oxy]phenyl]-5-(4-fluoro-2-methylphenyl)-6-methyl-4-oxopyridine-3-carboxamide] |
| < 100 | < 100 | < 100 | COc1cc2nccc(Oc3ccc(NC(=O)c4cn(CCF)c(C)c(-c5ccc(F)cc5C)c4=O)cc3)c2nc1OC [Compound 800, N-[4-[(6,7-dimethoxy-1,5-naphthyridin-4-yl)oxy]phenyl]-1-(2-fluoroethyl)-5-(4-fluoro-2-methylphenyl)-6-methyl-4-oxopyridine-3-carboxamide] |
